Experimental data reported in patent US20060216356A1, “Detection of antibacterial activity in excretory secretory product of adult trichuris suis” (Board of Trustees of Michigan State University, priority 2000, published 2006).
In brackets after ≈: the same amount, converted by molar mass. Where a name gives a salt, the structure may show the parent alone.

Assays:
Campylobacter jejuni [1] = assay: Effect of boiling on antibiotics, qualitative broth microdilution assay; format: cell-based; settings: 1x concentration, boiled for 10 minutes
Method: A broth microdilution method in 96 well plates was used to obtain qualitative and quantitative measures of antibacterial activity. Qualitatively, 50 μl samples of ESP were added to 50 μl suspensions of Campylobacter jejuni (containing about 5×10^5 cfu, as determined by standard serial dilution and plating) in 96 well plates. Plates were evaluated for growth as indicated by the presence of either turbidity or pellet of bacterial cells in the bottoms of U-shaped wells after 48 hr incubation. […] The size of the drug was also taken into consideration. Additionally, an experiment to assess the heat stability of the antibiotics was performed.

Campylobacter jejuni [2] = assay: Broth microdilution MIC/MBC and antibacterial titer on Campylobacter jejuni; format: cell-based
Method: Bacterial strains and media. The antibacterial activity in Trichuris suis ESP was originally observed using Campylobacter jejuni (ATCC 33292), and this was the strain on which most experiments were performed for this preliminary characterization. Several Campylobacter jejuni and Campylobacter coli isolates were used for MIC determinations (Table 1).
Additional quality control organisms routinely used for antimicrobial susceptibility assays were tested, including Enterococcus faecalis (ATCC 29212), Staphylococcus aureus (ATCC 25923), Escherichia coli (ATCC 25922), Pseudomonas aeruginosa (ATCC 27853), and Streptococcus pneumonia (ATCC 49619). […]
(§1) A broth microdilution method in 96 well plates was used to obtain qualitative and quantitative measures of antibacterial activity. Qualitatively, 50 μl samples of ESP were added to 50 μl suspensions of Campylobacter jejuni (containing about 5×10^5 cfu, as determined by standard serial dilution and plating) in 96 well plates. Plates were evaluated for growth as indicated by the presence of either turbidity or pellet of bacterial cells in the bottoms of U-shaped wells after 48 hr incubation.
To quantify activity and determine the minimum inhibitory concentration (MIC) of ESP against test organisms, serial two-fold dilutions of 20×-concentrated ESP were prepared in 50 μl volumes of MHB (n=2). […]

Campylobacter jejuni [3] = assay: HPLC fractionation with qualitative broth microdilution bioassay of fractions; format: cell-based; settings: C18 reverse phase HPLC, 5-80% ACN gradient in TFA
Method: as §1
High performance liquid chromatography. A Model 173 high performance liquid chromatography (HPLC) system (Perkin Elmer Applied Biosystems, Inc., Foster City, Calif.) at the Michigan State University Macromolecular Structure Facility was used to fractionate Trichuris suis ESP for preliminary isolation of the antibacterial activity (Hearn, Meth. Enzymol. 104: 190-212 (1984)). Samples (150 μl) of ESP were mixed with an equal volume of 0.1% trifluoroacetic acid (TFA) and centrifuged at full speed (11,000×g) at room temperature for 15 minutes. […] Absorbance of the eluate was monitored at 214 nm, and fractions were collected manually as peaks were detected. […]

[4] = compiled from a drug database at Upjohn; cited from earlier work
[5] = n-octanol/water partition coefficient (log PC) of antibiotics; format: physicochemical; settings: in parentheses beside log PC
Method: Consideration of CAP contamination. […] Using the worst-case scenario, the predicted maximum amount of CAP absorbed and how much would be released into the medium if the whipworms dissolved (i.e., released 100%) was estimated. […] It was assumed that the aggregate whipworm volume of these eccentrically shaped nematodes occupied 4% of the incubation well volume (4 whipworms/ml at about 10 μl/whipworm).

MIC (Campylobacter jejuni [2]) [µg/mL]	Structure (SMILES)	Antibacterial activity after boiling (Campylobacter jejuni [1])	antibacterial activity of HPLC fractions (Campylobacter jejuni [3])	log PC (n-octanol/water partition coefficient) [4]	Concentrating factor [5] [x]
~2 (≈ 6.19 µM)	O=C(N[C@H](CO)[C@H](O)c1ccc([N+](=O)[O-])cc1)C(Cl)Cl [Chloramphenicol]	+	one fraction with antibacterial activity		
	CC1(C)S[C@@H]2[C@H](NC(=O)Cc3ccccc3)C(=O)N2[C@H]1C(=O)O [Penicillin G]	−		185	71
	[H]/N=C(/N)N[C@H]1[C@H](O)[C@@H](O)[C@H](O[C@@H]2O[C@@H](C)[C@](O)(C=O)[C@H]2O[C@@H]2O[C@@H](CO)[C@H](O)[C@@H](O)[C@@H]2NC)[C@@H](N/C(N)=N\[H])[C@@H]1O [Streptomycin sulfate]	+		−9.53(—)	
